Data as given in US20230242669A1, “ANTIBODY THAT BINDS ERBB-2 AND ERBB-3” (Merus N.V., priority 2014, published 2023).

Experiments:
[1] = test system: SKBR-3 cells with FcγRIIIa reporter cells; assay: ADCC Reporter Bioassay (Promega); assay type: cell-based, human; details: SKBR-3, V158 effector cells
Protocol: In a different ADCC setup, the ADCC Reporter Bioassay (Promega) was used. The bioassay uses engineered Jurkat cells stably expressing the FcYRIIIa receptor, V158 (high affinity) or F158 (low affinity) variant, and an NFAT response element driving expression of firefly luciferase. The assay was validated by comparing data obtained with the ADCC Reporter Bioassay to the classical ^51Cr release assay. The ADCC assays were performed using the Promega ADCC Bioassay kit using 384 white well plates. In this experimental setup SKBR-3 cells were plated at a density of 1000 cells/well in 30 µl assay medium (RPMI with 4% low IgG serum) 20-24 H before the bioassay. The next day, the culture medium was removed. […] 10 µl antibody dilutions were added to the wells. The starting concentration of the antibody was 10 µg/ml and a 10 points semi-log fold serial dilution was generated to provide a full dose-response curve. Finally, 5 µl of ADCC Bioassay effector cells (15000 cells/well, V158) were added. The cells were incubated for 6 H at 37° C. Next, 15 µl BIO-Glo luciferase substrate was added and 5 minutes later luminescence was detected in a plate reader.
ADCC activity was measured by measuring luciferase activity. […] (FIG. 15)

[2] = test system: HRG mediated phosphorylation in N87 and SKBR-3 cells; assay: PathScan RTK / intracellular signaling antibody arrays; assay type: cell-based, human; details: 5 nM antibody, 100 ng/ml HRG
Protocol: Cells of an exponentially grown culture were harvested and seeded in 6 well plates (3.75 ×10^6 cells for N87 and 1.5×10^6 cells for SKBR-3) in starvation medium (N87 cells: RPMI-1640, 0.05% BSA, 10 µg/ml Holo-transferrin; SKBR-3 cells: DMEM/F-12, 2 mM L-glutamine, 0.05% BSA, 10 µg/ml Holo-transferrin) and incubated incubated overnight at 37° C., 5% CO2, in 95% relative humidity. The next day, antibodies were added to a final concentration of 5 nM and cells were incubated for one hour at 37° C., 5% CO2, in 95% relative humidity. HRG was then added to a final concentration of 100 ng/ml. After 1, 3, 6 or 24 hours at 37° C., 5% CO2, in 95% relative humidity, plates were placed on ice, cells were washed twice with cold PBS. Subsequently 0.3 ml ice-cold lysis buffer was added (Cell signaling RTK # 9803 or IC # 7018) and cells were lysed for a minimum of 30 minutes on ice. Next, protein concentrations were measured using BCA (Pierce #23235). Protein concentrations were adjusted to 2 mg/ml with lysis buffer. Next, lysates were applied to PathScan RTK Signaling Antibody Arrays (Cell signaling #7949) or PathScan Intracellular Signaling Antibody Arrays. All incubations were performed with sealed wells on an orbital shaker at room temperature. Lysates (75 µl) were diluted 2 times to […] concentration with 75 µl Array Diluent Buffer supplemented with protease inhibitor cocktail and kept on ice. Array wells were blocked with 100 µl Array block buffer for 15 minutes. Block buffer was removed and Lysates were applied to the wells and allowed to incubate for 2 hours. Lysate was aspirated and wells were washed 4 times with 100 µl Wash buffer. Next, 100 µl detection antibody cocktail was added per well and incubated for 1 hour. Antibody cocktail was aspirated and wells were washed 4 times with 100 µl Wash buffer. 75 µl DYLIGHT80™ Streptavidin was added to each well. DYLIGHT80™ Streptavidin was aspirated and wells were washed 4 times with 100 µl Wash buffer. […] Spot fluorescence intensity was calculated using Image Studio software.

AKT in JIMT-1 tumors = assay: Phosphoprotein analysis of JIMT-1 tumors by Luminex; assay type: in vivo, mice
Protocol: Tumors were flash-frozen and processed to powder. Tumor lysates were prepared to a concentration of 50 mg tumor/mL using cold BioRad Lysis Buffer (supplemented with 0.4% BioRad Factor 1, 0.2% BioRad Factor 2, and 2 mM PMSF) to the frozen powder samples, incubated at 4° C. on a rocker for 60 minutes to ensure complete lysis. The samples were centrifuged at 4° C. for 10 minutes at 16000 × g, and aliquoted. Total protein was determined using the Biorad DC Protein Assay reagents according to manufacturer’s instructions. Luminex Assay: The JIMT-1 tumor lysate samples were processed and analyzed for: Total AKT AKT(Ser473) and AKT(Thr308using commercially available Luminex kits from Millipore (Cat # 48-618MAG (Lot No. 2532050), 46-645MAG (Lot No. 46645 M-1K). Each sample was tested in duplicate. Dilutions were prepared in sample diluent to load a target of approximately 25 µg protein per well for all total and phosphorylated analyte determinations. The Millipore kits were used according to the manufacturer’s specifications.

[3] = test system: HER2:HER3 signaling in JIMT-1 tumors; assay: VeraTag analysis of JIMT-1 tumors; assay type: in vivo, mice
Protocol: Next, samples were paraffin-embedded. Sections of 7 um in thickness were sliced with a microtome (LEICA) and placed on positively charged glass slides (VWR) with serial number labeled. Slides were air-dried for 30 min and then baked in a heated oven set at 60° C. Next samples were processed for different VeraTag analysis. Total HER2 analysis (HT2) according to U.S. Pat. Appl. No. 12/340,436, total HER3 analysis (H3T) according to U.S. Pat. No. 8,349,574; U.S. Pat. Appl. No. 2013/0071859 and finally HER2-HER3 heterodimer (H23D), HER3pY1289 (H3pY1289) and HER3-PI3 kinase (H3PI3K) according to Int′l Patent Appl. No. PCT/US2014/033208.

PB4188: bispecific HER2xHER3 IgG: HER2 arm MF3958, HER3 arm MF3178
ADCC potency compared to parental monoclonals or their combination [1]: higher ADCC potentency | ERK and S6 phosphorylation [2]: strong inhibition | HER2 phosphorylation [2]: does not inhibit phosphorylation of HER2 | AKT phosphorylation ([2]; first 6H): completely blocks AKT phosphorylation | Akt expression in tumors compared to untreated tumors (AKT in JIMT-1 tumors; JIMT-1 tumors): increase in Akt expression | Phosphorylation of AKT in tumors (AKT in JIMT-1 tumors; after two-weekly and four-weekly dose): completely inhibited | Total HER2, HER3 or phosphorylated HER3 in tumors versus controls ([3]; 25 mg/kg): no difference | HER2:HER3 dimers in tumors versus untreated controls ([3]; 25 mg/kg, both dosing regimens): significant PB4188 mediated reduction in HER2:HER3 dimers | HER3-p85 (PI3K) in tumors versus untreated controls ([3]; 4H after dosing): significant reduction in HER3-p85 (PI3K)
